Among the test systems are A549 NSCLC; COLO 205 colon; NCI/ADR-RES ovarian; BT-549 breast; HL-60(TB) leukemia; MDA-MB-231 breast; SR leukemia; SF-268 CNS; DU-145 prostate; HT29 colon.
Common to all, as to assay: inhibition of tumour cell growth, NCI panel, 48 h

The source of these data is PubChem BioAssay (NCI).

Where “and” joins values, the source holds several entries; their conditions need not be identical. Equal values may be shown once.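 Briefly, cells in 96-well plates were exposed to five compound concentrations for 48 h, and endpoints were estimated by linear interpolation. GI50: concentration for 50% inhibition of growth. The concentration for full growth arrest is given as TGI.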

As for `NC(=O)c1csc(C2OC(CO)C(O)C2O)n1` (stereo not drawn), the GI50 with A549 NSCLC is 130 µM; in the experiment on COLO 205 colon it was 4.76 µM; with NCI/ADR-RES ovarian, 47.4 µM; in the experiment on BT-549 breast, over 60.7 µM; in the experiment with HL-60(TB) leukemia it was 36.5 µM; in the experiment on MDA-MB-231 breast it was over 73.8 µM. Moreover, the GI50 was 103 µM with SR leukemia, 96.1 µM in the experiment with SF-268 CNS and 45.9 µM with HT29 colon. In addition, the TGI with A549 NSCLC is over 10000 µM; in the experiment with COLO 205 colon, > 31.6 µM and 6210 µM; in the experiment with NCI/ADR-RES ovarian, 3010 µM; in the experiment with BT-549 breast, over 10000 µM; with HL-60(TB) leukemia, 3330 µM; in the experiment on MDA-MB-231 breast, over 6480 µM. Moreover, the TGI is over 6090 µM in the experiment with SR leukemia, 9040 µM in the experiment with SF-268 CNS, over 10000 µM with DU-145 prostate and over 10000 µM with HT29 colon.

For `CN1CCN(C(=O)c2cc(-c3ccc4ncnc(N5CCc6cc(F)c(Cl)cc65)c4c3)cnc2N)CC1`, the GI50 in the experiment with A549 NSCLC was 0.194 µM; in the experiment on COLO 205 colon, 0.446 µM; in the experiment on NCI/ADR-RES ovarian it was 0.723 µM; with BT-549 breast it was 0.181 µM; in the experiment on HL-60(TB) leukemia it was 0.0535 µM; with MDA-MB-231 breast, 0.444 µM. In addition, the GI50 in the experiment on SR leukemia is 0.137 µM; with SF-268 CNS it was 0.216 µM; in the experiment with DU-145 prostate, 0.214 µM; in the experiment on HT29 colon, 0.216 µM. Besides, the TGI in the experiment on A549 NSCLC came out at 1.8 µM; in the experiment on COLO 205 colon, 3.5 µM; in the experiment with NCI/ADR-RES ovarian, 10.2 µM; in the experiment with BT-549 breast, 1.57 µM; in the experiment on HL-60(TB) leukemia, 0.409 µM; with MDA-MB-231 breast, 3.12 µM. The results for the TGI in the experiment on SF-268 CNS, in the experiment with DU-145 prostate and with HT29 colon were 2.32 µM, 11.3 µM and 4.57 µM, respectively.

`O=C1OCC2=C1C(c1ccc(Cl)c(Cl)c1)c1cc3c(cc1N2CCO)OCCO3` (stereo not drawn): the GI50 in the experiment on A549 NSCLC is 0.299 µM; in the experiment with COLO 205 colon it was 0.21 µM; with NCI/ADR-RES ovarian, 0.239 µM; with BT-549 breast it was 0.583 µM; in the experiment with HL-60(TB) leukemia, 0.135 µM; in the experiment with MDA-MB-231 breast, 0.833 µM. Moreover, the GI50 with SR leukemia was 0.187 µM; with SF-268 CNS it was 0.261 µM; in the experiment with DU-145 prostate, 0.211 µM; in the experiment with HT29 colon, 0.148 µM. Further, the TGI in the experiment on A549 NSCLC is 11.8 µM; in the experiment with COLO 205 colon, 1.14 µM; with NCI/ADR-RES ovarian it was 3 µM; with BT-549 breast it was 15.5 µM; in the experiment on HL-60(TB) leukemia it was 0.587 µM; in the experiment with MDA-MB-231 breast, 7.59 µM. For the same molecule, the TGI is 21.7 µM in the experiment with SR leukemia, 11.6 µM in the experiment with SF-268 CNS, 6.53 µM in the experiment on DU-145 prostate and 0.502 µM in the experiment on HT29 colon.

With `C/C(=C\c1ccc2ccccc2c1)[N+](=O)[O-]`, the GI50 was 4.58 µM in the experiment with A549 NSCLC; 2.07 µM in the experiment with COLO 205 colon; 7.75 µM in the experiment with NCI/ADR-RES ovarian; 2.24 µM with BT-549 breast; 2.03 µM in the experiment with HL-60(TB) leukemia; 2.02 µM in the experiment with MDA-MB-231 breast. In addition, the GI50 is 0.409 µM in the experiment on SR leukemia, 1.91 µM in the experiment with SF-268 CNS, 1.91 µM with DU-145 prostate and 2.18 µM in the experiment on HT29 colon. Also, the TGI in the experiment on A549 NSCLC came to 19.3 µM; with COLO 205 colon, 4.36 µM; in the experiment with NCI/ADR-RES ovarian, 23.7 µM; in the experiment on BT-549 breast it was 4.57 µM; with HL-60(TB) leukemia, 5.49 µM; in the experiment with MDA-MB-231 breast, 3.92 µM. The TGI is 2.56 µM in the experiment on SR leukemia, 3.72 µM in the experiment on SF-268 CNS, 3.54 µM with DU-145 prostate and 4.46 µM in the experiment on HT29 colon.

In the case of `O=C(O)CN1CCN(CC(=O)O)CC(=O)[O][Hg][O]C(=O)C1`, the GI50 is over 100 µM in the experiment with A549 NSCLC; 17.8 µM with COLO 205 colon; 30.5 µM in the experiment with NCI/ADR-RES ovarian; 19.5 µM with BT-549 breast; 13.7 µM with HL-60(TB) leukemia; 19.6 µM in the experiment with MDA-MB-231 breast. In addition, the GI50 with SR leukemia was 14.8 µM; in the experiment on SF-268 CNS, 20.7 µM; with DU-145 prostate, 27.8 µM; in the experiment on HT29 colon, 16 µM. Moreover, the TGI in the experiment with A549 NSCLC was over 100 µM; with COLO 205 colon it was 32.5 µM; in the experiment with NCI/ADR-RES ovarian, over 81.3 µM; with BT-549 breast, 34.8 µM; in the experiment on HL-60(TB) leukemia, 34.7 µM; in the experiment on MDA-MB-231 breast it was 35.3 µM. The TGI in the experiment on SR leukemia is 38.6 µM; in the experiment on SF-268 CNS, 52.6 µM; with DU-145 prostate it was over 61.9 µM; with HT29 colon it was 34.1 µM.

For the molecule `Cc1ccc(/C=N\NC(=O)c2[nH]c3ccc(F)cc3c2-c2ccccc2)cc1`, the GI50 in the experiment on A549 NSCLC is 0.0344 µM; in the experiment with COLO 205 colon it was 0.0186 µM; in the experiment on NCI/ADR-RES ovarian it was 0.0238 µM; in the experiment on BT-549 breast, 0.034 µM; in the experiment on HL-60(TB) leukemia, 0.0291 µM; in the experiment with MDA-MB-231 breast, 0.0283 µM. The GI50 is 0.0323 µM with SR leukemia, 0.23 µM in the experiment on SF-268 CNS, 0.0251 µM in the experiment on DU-145 prostate and 0.0291 µM with HT29 colon. In addition, the TGI was over 100 µM with A549 NSCLC; 0.0343 µM in the experiment on COLO 205 colon; 1.91 µM in the experiment on NCI/ADR-RES ovarian; 7.29 µM with BT-549 breast; 0.121 µM with HL-60(TB) leukemia; 0.129 µM in the experiment on MDA-MB-231 breast. Moreover, the TGI in the experiment on SR leukemia was over 64.2 µM; in the experiment with SF-268 CNS it was 42.5 µM; in the experiment with DU-145 prostate it was 0.0622 µM; in the experiment on HT29 colon it was 11.6 µM.

For the molecule `O=C1CCC(N2Cc3cc(CNC(=O)C(F)(F)c4ccc(Cl)cc4)ccc3C2=O)C(=O)N1` (stereo not drawn), the GI50 is over 100 µM in the experiment on A549 NSCLC; 0.721 µM in the experiment with COLO 205 colon; 29.2 µM with NCI/ADR-RES ovarian; 0.237 µM with BT-549 breast; under 0.01 µM in the experiment with HL-60(TB) leukemia; 0.0679 µM in the experiment with MDA-MB-231 breast. The GI50 in the experiment on SR leukemia was 54.1 µM; in the experiment on SF-268 CNS, over 100 µM; in the experiment on DU-145 prostate, over 100 µM; in the experiment with HT29 colon it was over 100 µM. Besides, the TGI was over 100 µM in the experiment with A549 NSCLC; over 100 µM in the experiment with COLO 205 colon; over 100 µM in the experiment on NCI/ADR-RES ovarian; over 74.2 µM with BT-549 breast; 0.03 µM in the experiment with HL-60(TB) leukemia; over 100 µM in the experiment on MDA-MB-231 breast. In addition, the TGI in the experiment on SR leukemia, in the experiment on SF-268 CNS, with DU-145 prostate and with HT29 colon was over 100 µM throughout.
